# Data reported in patent US20220119446A1, “BIOMARKERS AND TREATMENT OF NEURONAL INJURY AND NEURODEGENERATION” (Board of Supervisons of Louisiana State University and …, priority 2018, published 2022).
# “Also recorded” adds a separate entry of the source.
# Key:
# [1] = tested on: Wnt5a; assay: SYBR green real-time PCR of Wnt5a mRNA in human primary RPE (hpRPE) cells under UOS; assay type: cell-based
# Procedure: ARPE-19 cells, can be plated and grown in DMEM/F-12 containing 10% FBS and 1× penicillin/streptomycin at 37° C., 5% CO2, 99% relative humidity for 24 h. […] 15-LOX-1 deficient cells can be maintained in the same medium as ARPE-19 with the addition of 500 μg/mL Geneticin (Life Technologies Corporation, Carlsbad, Calif.). Transfection can be performed in all cases using Lipofectamine 2000 (Life Technologies Corporation, Carlsbad, Calif.) following the manufacturer's recommendations. […] Experiments with transfection efficiency that yielded less than 80% can be discarded. For siRNA, we used 6 μl of Lipofectamine 2000 per 50 pmol of siRNA per mL of incubation medium, and, for plasmids, we used 6 μl of Lipofectamine 2000 per 2 μg of plasmid per mL of incubation medium. Cells can be incubated for 5 hours at 37° C., 5% CO2 and 99% relative humidity. […] When siRNA/plasmid co-transfection is required, siRNA and plasmid-carrying transfection mixes can be prepared separately and added one after the other in the same well. Oxidative stress treatments can be performed using 600 (ARPE-19) or 1600 (hRPE) μM H2O2, along with 10 ng/mL TNFα, for the required time indicated in each experiment. The treatment we used employed the low serum (0.5% serum) without hFGF. Treatment to induce uncompensated oxidative stress (UOS) can be performed after 8 hours of low-serum medium incubation unless specifically noted. […]
# [2] = tested on: Wnt5a promoter A; assay: ChIP assay of cRel binding to Wnt5a promoter A with real-time PCR; assay type: cell-based, human; conditions: for cRel bound to genomic DNA, amplicon 3: RPE cells undergoing UOS, NPD1 added
# Source text: Based on the regions found to bind NF-κB members (Table 4), we designed four sets of primers that bound in the proximity or within the regions of interest to perform SYBR green-based real-time PCR detection (FIG. 2, D-F and Table 3). FIGS. 2, D and F and Table 5, also show regions of high probability for methylation, a mechanism for blocking Wnt5a transcription (Vaidya et al. 2016). Micrococcal […] digested genomic DNA fragments from UOS or UOS-plus-NPD1-treated RPE cells, +/−rWnt5a, were pulled down by an antibody against cRel and used to test the four sets of primers. […] Methylation of Region 1 may occur since it was predicted by the Methprimer software (Table 5). […] The results obtained for amplicon 3, indicate competition between the Wnt5a-activated p65 and NPD1-activated cRel (FIG. 2E).
# The chromatin immunoprecipitation assay can be performed using SimpleChIP® Plus Enzymatic Chromatin IP Kit (Cell Signaling Technology, Boston, Mass.) following the manufacturer's recommendations including ChIP validated cRel antibody. Positive control Histone H3 antibody and normal serum can be provided by a kit, as well as control primers for human RPL30 Exon 3. Primers A1 to 4 can be designed using Primer-Blast (NCBI, Bethesda, Md.)((Ye et al. 2012) and are depicted in Table 5. The immunoprecipitated samples real-time PCR values can be standardized using 10% of the input chromatin preparation using primers A1, A2, and A3 pooled values and RPL30 Exon 3 values.
# The chromatin immunoprecipitation assay was performed using SimpleChIP® Plus Enzymatic Chromatin IP Kit (Cell Signaling Technology, Boston, Mass., USA) following the manufacturer's recommendations including ChIP validated cREL antibody. Positive control Histone H3 antibody and normal serum was provided by the kit, as well as control primers for human RPL30 Exon 3. Primers A1 to 4 were designed using Primer-Blast at NCBI platform (Ye et al., 2012) and are depicted in Table S5. The immunoprecipitated samples real-time PCR values were standardized using 10% of the input chromatin preparation using primers A1, A2, and A3 pooled values and RPL30 Exon 3 values.
compound,measurement,setting,value
"CC/C=C\C[C@H](O)\C=C/C=C/C=C/[C@H](O)C/C=C\C/C=C\CCC(=O)O [NPD1, 10R,17S-dihydroxy-docosa-4Z,7Z,11E,13E,15Z,19Z-hexaenoic acid]",Wnt5a transcription (mRNA),"[1]; hpRPE cells, UOS 1,600 μM H2O2 and 10 ng/ml TNFα, 6 hours",down regulated Wnt5a transcription; also recorded: decreased Wnt5a expression
same,increase of Wnt5a expression on cRel silencing,"[1]; hpRPE, UOS plus NPD1, 12-fold in control, 8-fold in UOS",4 fold
same,"cRel bound to genomic DNA, amplicon 2 (Region 3 and 4)","[2]; RPE cells under UOS, NPD1 100 nM",twice the amount of cRel bound
same,"cRel binding, amplicon 4",[2]; RPE cells undergoing UOS in the presence of rWnt5a,restored the cRel binding to control levels
same,"cRel bound to genomic DNA, amplicon 3",[2]; Wnt5a present,10 fold
same,"cRel bound to genomic DNA, amplicon 3",[2]; absence of Wnt5a,more than 20 fold
same,"cRel binding to genomic DNA, amplicon A1","[2]; RPE cells, UOS or UOS plus NPD1, +/−rWnt5a",no differences between treatments
